Patent publication US20040259926A1, “3-Aryloxy and 3-heteroaryloxy substituted benzo[b]thiophenes as therapeutic agents” (priority 2003, published 2004)

Target: T1, PI3Kγ (recombinant p101/p110γ protein) (Homo sapiens, UniProt P48736)
T1 construct: HA; made in house; host or cells: Spodoptera frugiperda (Sf9) cells, baculovirus co-infection
Experiment: PI3Kγ In Vitro Kinase Assay
Assay type: biochemical
Settings: purified recombinant p101/p110γ with G protein β1/γ2 subunits; 20 μM ATP, [γ-32P-ATP]; 25 μM PIP2 lipid micelles; 20 minutes at room temperature
Experimental: Spodtera frugiperda cells, grown in ESF921 media, were coinfected with baculovirus expressing a glu-tagged […] and baculovirus expressing an HA-tagged p110γ, at a 3:1 ratio of p101 baculovirus to p110γ baculovirus. Sf9 cells were grown to 1×10^7 total cells/mL in 10 L bioreactors and harvested 48-72 hours post infection. Samples of infected cells were then tested for expression of p101/p110γ PI3 kinase by immunoprecipitation and Western Blot analysis methods (see below).
To purify PI3Kγ, 4 volumes of room temperature hypotonic lysis buffer (1 mM MgCl2, 1 mM DTT, 5 mM EGTA, 1 mM Pefabloc, 0.5 μM aprotinin, 5 μM leupeptin, 2 μM pepstatin, 5 μM E64, pH 8) per gram of cell paste, was poured onto frozen cell pellets with stirring, then lysed in a nitrogen “bomb” at 400 psi (599 HC T316, Parr Instrument Co, Moline, Ill.). NaCl was added to 150 mM, and sodium cholate was added to 1% and mixed for another 45 minutes. The lysates were clarified by centrifugation for 25 minutes at 14,000 rpm. The lysates were then loaded over anti-glu-linked Protein-G Sepaharose beads (Covance Research Products, Richmond, Calif.) using 20 mL resin/50 g cell paste. The column was washed with 15 volumes of wash buffer (1 mM DTT, 0.2 mM EGTA, 1 mM Pefabloc, 0.5 μM aprotinin, 5 μM leupeptin, 2 μM pepstatin, 5 μM E64, 150 mM NaCl, 1% sodium cholate, pH 8). PI3Kγ was eluted with 6 column volumes of wash buffer that contain 100 μg/mL of a peptide that competes for binding of the glu tag. The column fractions with the eluted protein (determined by taking OD280 readings) were collected and dialyzed in 0.2 mM EGTA, 1 mM DTT, 1 mM Pefabloc, 5 μM leupeptin, 0.5% sodium cholate, 150 mM NaCl, and 50% glycerol, pH 8. The fractions were stored at −80° C. until further use.
Spodtera frugiperda cells were coinfected with baculovirus expressing a glu-tagged G protein β1 and baculovirus expressing a G protein β2 at a 1:1 ratio of glu-tagged G protein β1 baculovirus to G protein β2 baculovirus. Sf9 cells are grown in 10 L bioreactors and harvested 48-72 hours post infection. Samples of infected cells were tested for G protein β1/β2 expression by Western Blot analysis, as described below. Cell lysates were homogenized and loaded onto a column of glu-tagged beads as in Biological Example 1 and competed off the column with a glu peptide and processed as described in Biological Example 1.
The inhibitory properties of the compounds in Table 1 were assayed in an in vitro PI3K assay. In a 96-well polypropylene plate, each well was spotted with 2 μL of 50 times the desired final concentration of compound in DMSO. Purified recombinant p101/p110γ protein (0.03 μg; ˜2.7 nM) and G protein β1/γ2 subunits (0.09 μg; ˜57.7 nM) for each reaction was combined in the assay buffer (30 mM HEPES, 100 mM NaCl, 1 mM EGTA, and 1 mM DTT). ATP and [γ-^32P-ATP] (0.09 μCi) were added to this mixture so that the final ATP concentration in the reaction was 20 μM. Lipid micelles were formed by sonicating phosphatidylinositol-4,5-diphosphate (PIP2), phosphatidylethanolamine (PE), and Na-cholate in the assay buffer for 10 minutes, adding MgCl2 and incubating on ice for 20 minutes, for final concentrations of 25 μM PIP2, 300 μM PE, 0.02% Na-cholate, and 10 mM MgCl2 in the reaction. The reactions were started by adding equal volumes lipid and enzyme mixture in a total volume of 50 μL, allowed to run for 20 minutes at room temperature, and stopped with 100 μL 75 mM H3PO4. The lipid product was transferred to a glass fiber filter plate and washed with 75 mM H3PO4 several times. The presence of radioactive lipid product (PIP3) was measured by adding Wallac Optiphase mix to each well and counting in a Wallac 1450 Trilux plate reader (PerkinElmer Life Sciences Inc., Boston, Mass. 02118). The IC50 for each compound tested is reported in μM in Table 1: […]

T1 sequence (P48736 whole entry, species assumed): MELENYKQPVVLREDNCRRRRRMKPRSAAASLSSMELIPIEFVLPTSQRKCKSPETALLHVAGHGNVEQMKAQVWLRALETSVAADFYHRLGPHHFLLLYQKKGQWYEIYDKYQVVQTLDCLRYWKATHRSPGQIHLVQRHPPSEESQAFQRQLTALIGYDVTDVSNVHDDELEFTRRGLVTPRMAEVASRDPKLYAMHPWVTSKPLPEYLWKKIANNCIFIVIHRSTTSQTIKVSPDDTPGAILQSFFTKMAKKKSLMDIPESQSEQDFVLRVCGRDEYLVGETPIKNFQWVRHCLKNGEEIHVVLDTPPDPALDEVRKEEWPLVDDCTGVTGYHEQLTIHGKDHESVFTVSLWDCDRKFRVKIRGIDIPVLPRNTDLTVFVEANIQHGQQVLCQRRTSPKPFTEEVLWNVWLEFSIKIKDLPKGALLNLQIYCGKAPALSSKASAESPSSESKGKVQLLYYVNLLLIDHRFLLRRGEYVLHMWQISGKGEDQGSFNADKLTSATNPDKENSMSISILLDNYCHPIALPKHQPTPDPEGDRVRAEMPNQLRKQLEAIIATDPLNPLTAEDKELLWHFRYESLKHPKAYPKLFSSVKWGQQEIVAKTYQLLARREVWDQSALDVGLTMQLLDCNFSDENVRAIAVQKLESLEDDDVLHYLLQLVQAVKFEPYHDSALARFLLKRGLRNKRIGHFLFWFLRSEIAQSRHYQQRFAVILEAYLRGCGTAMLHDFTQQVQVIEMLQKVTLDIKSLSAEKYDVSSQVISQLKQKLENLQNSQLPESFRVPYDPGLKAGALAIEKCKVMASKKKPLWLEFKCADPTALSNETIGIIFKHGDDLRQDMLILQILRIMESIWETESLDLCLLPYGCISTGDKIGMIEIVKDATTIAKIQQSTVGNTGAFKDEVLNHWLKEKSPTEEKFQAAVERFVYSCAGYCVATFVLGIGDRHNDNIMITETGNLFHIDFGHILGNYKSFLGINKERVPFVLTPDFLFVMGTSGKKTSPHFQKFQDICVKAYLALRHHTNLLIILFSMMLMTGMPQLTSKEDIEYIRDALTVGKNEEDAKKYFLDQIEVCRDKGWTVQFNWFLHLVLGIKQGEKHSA
T1 sequence (Q8WYR1 whole entry partner, species assumed): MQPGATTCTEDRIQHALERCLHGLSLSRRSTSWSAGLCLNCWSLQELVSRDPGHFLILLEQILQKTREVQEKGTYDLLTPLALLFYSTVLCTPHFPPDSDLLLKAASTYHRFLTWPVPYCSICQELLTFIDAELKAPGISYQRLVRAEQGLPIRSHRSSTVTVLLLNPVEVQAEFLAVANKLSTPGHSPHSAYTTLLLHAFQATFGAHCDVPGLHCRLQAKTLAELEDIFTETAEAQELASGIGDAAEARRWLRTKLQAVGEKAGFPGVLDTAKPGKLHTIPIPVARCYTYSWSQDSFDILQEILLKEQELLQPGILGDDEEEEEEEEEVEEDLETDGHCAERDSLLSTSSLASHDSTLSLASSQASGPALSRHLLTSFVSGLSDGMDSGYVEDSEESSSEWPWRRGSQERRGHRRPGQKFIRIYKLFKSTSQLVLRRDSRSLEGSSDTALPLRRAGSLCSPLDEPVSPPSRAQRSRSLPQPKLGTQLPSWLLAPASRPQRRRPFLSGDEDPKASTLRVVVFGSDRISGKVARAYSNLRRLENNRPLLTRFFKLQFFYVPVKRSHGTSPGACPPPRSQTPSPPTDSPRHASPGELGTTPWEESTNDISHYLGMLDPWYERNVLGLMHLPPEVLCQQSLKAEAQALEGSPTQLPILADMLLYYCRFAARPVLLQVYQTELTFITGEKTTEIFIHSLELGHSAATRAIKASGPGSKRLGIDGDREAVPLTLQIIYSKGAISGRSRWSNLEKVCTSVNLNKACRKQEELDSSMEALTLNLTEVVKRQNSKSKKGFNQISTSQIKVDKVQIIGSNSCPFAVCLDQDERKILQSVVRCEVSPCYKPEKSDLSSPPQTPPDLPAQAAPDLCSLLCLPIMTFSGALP

| Compound | IC50 [µM] |
| --- | --- |
| COc1cc2c(Oc3ccc(C4CCCCC4)cc3C)c(C(=O)Nc3nn[nH]n3)sc2cc1C [Example B.28, 3-(4-Cyclohexyl-2-methyl-phenoxy)-5-methoxy-6-methyl-benzo[b]thiophene-2-carboxylic acid (2H-tetrazol-5-yl)-amide] | 0.061 |
| COc1cc2c(Oc3ccc(OC4CCCCC4)cc3)c(C(=O)Nc3nn[nH]n3)sc2cc1C [Example B.22, 3-(4-Cyclohexyloxy-phenoxy)-5-methoxy-6-methyl-benzo[b]thiophene-2-carboxylic acid (2H-tetrazol-5-yl)-amide] | 0.018 |
| COc1cc2c(Oc3ccc(N4CCCCC4)cc3)c(C(=O)Nc3nn[nH]n3)sc2cc1C [Example B.31, 5-Methoxy-6-methyl-3-(4-piperidin-1-yl-phenoxy)-benzo[b]thiophene-2-carboxylic acid (2H-tetrazol-5-yl)-amide] | 0.087 |
| COc1ccc2sc(C(=O)Nc3nn[nH]n3)c(Oc3cccc(C)c3)c2c1 [Example A.3, 5-Methoxy-3-m-tolyloxy-benzo[b]thiophene-2-carboxylic acid (2H-tetrazol-5-yl)-amide] | 0.415 |
| COc1cc2sc(C(=O)Nc3nnn[nH]3)c(OCC(C)(C)c3ccccc3)c2cc1OC [Example C.34, 5,6-Dimethoxy-3-(2-methyl-2-phenyl-propoxy)-benzo[b]thiophene-2-carboxylic acid (1H-tetrazol-5-yl)-amide] | 0.084 |
| COc1cc2c(Oc3ccc(C4CCCCC4)c(C)c3)c(C(=O)Nc3nn[nH]n3)sc2cc1C [Example B.29, 3-(4-Cyclohexyl-3-methyl-phenoxy)-5-methoxy-6-methyl-benzo[b]thiophene-2-carboxylic acid (2H-tetrazol-5-yl)-amide] | 0.275 |
| COc1cc2c(Oc3ccc(C4CCS(=O)(=O)CC4)cc3)c(C(=O)Nc3nn[nH]n3)sc2cc1C [Example B.69, 3-[4-(1,1-Dioxo-hexahydro-1λ^6-thiopyran-4-yl)-phenoxy]-5-methoxy-6-methyl-benzo[b]thiophene-2-carboxylic acid (2H-tetrazol-5-yl)-amide] | 0.004 |
| CCOC(=O)Cc1ccc(Oc2c(C(=O)Nc3nn[nH]n3)sc3cc(C)c(OC)cc23)cc1 [Example B.6, {4-[5-Methoxy-6-methyl-2-(2H-tetrazol-5-ylcarbamoyl)-benzo[b]thiophene-3-yloxy]-phenyl}-acetic acid ethyl ester] | 0.012 |
| COc1cc2sc(C(=O)Nc3nnn[nH]3)c(OCCc3cc(C)cc(C)c3)c2cc1OC [Example C.32, 3-[2-(3,5-Dimethyl-phenyl)-ethoxy]-5,6-dimethoxy-benzo[b]thiophene-2-carboxylic acid (1H-tetrazol-5-yl)-amide] | 0.117 |
| COc1cc2c(Oc3ccc(C4(C)CCCCC4)cc3)c(C(=O)Nc3nn[nH]n3)sc2cc1C [Example B.26, 5-Methoxy-6-methyl-3-[4-(1-methyl-cyclohexyl)-phenoxy]-benzo[b]thiophene-2-carboxylic acid (2H-tetrazol-5-yl)-amide] | 0.067 |
| COc1cc2c(Oc3cncnc3N3CCCCC3)c(C(=O)Nc3nn[nH]n3)sc2cc1C [Example B.37, 5-Methoxy-6-methyl-3-(4-piperidin-1-yl-pyrimidin-5-yloxy)-benzo[b]thiophene-2-carboxylic acid (2H-tetrazol-5-yl)-amide] | 0.089 |
| CCCCC1CCCC(c2ccc(Oc3c(C(=O)Nc4nn[nH]n4)sc4cc(C)c(OC)cc34)cc2)C1 (stereo not shown) [Example B.52, 3-[4-(3-Butyl-cyclohexyl)-phenoxy]-5-methoxy-6-methyl-benzo[b]thiophene-2-carboxylic acid (2H-tetrazol-5-yl)-amide] | 1.31 |
| COc1cc2c(Oc3ccc(C4CCCCC4)cc3Cl)c(C(=O)Nc3nn[nH]n3)sc2cc1C [Example B.73, 3-(2-Chloro-4-cyclohexyl-phenoxy)-5-methoxy-6-methyl-benzo[b]thiophene-2-carboxylic acid (2H-tetrazol-5-yl)-amide] | 0.013 |
| COc1ccc2sc(C(=O)Nc3nn[nH]n3)c(Oc3cc(C)cc(C)c3)c2c1 [Example A.9, 3-(3,5-dimethyl-phenoxy)-5-methoxy-benzo[b]thiophene-2-carboxylic acid (2H-tetrazol-5-yl)-amide] | 1.2 |
| COCC1(c2ccc(Oc3c(C(=O)Nc4nn[nH]n4)sc4cc(C)c(OC)cc34)cc2)CCCC1 [Example B.59, 5-Methoxy-3-[4-(1-methoxymethyl-cyclopentyl)-phenoxy]-6-methyl-benzo[b]thiophene-2-carboxylic acid (2H-tetrazol-5-yl)-amide] | 0.025 |
| COc1cc2sc(C(=O)Nc3nnn[nH]3)c(OCc3ccncc3)c2cc1OC [Example C.18, 5,6-Dimethoxy-3-(pyridin-4-ylmethoxy)-benzo[b]thiophene-2-carboxylic acid (1H-tetrazol-5-yl)-amide] | 0.45 |
| COc1cc2c(Oc3ccc(C4CCCCC4)cc3)c(C(=O)Nc3nn[nH]n3)sc2cc1C [Example B.4, 3-(4-Cyclohexyl-phenoxy)-5-methoxy-6-methyl-benzo[b]thiophene-2-carboxylic acid (2H-tetrazol-5-yl)-amide] | 0.037 |
| COc1cc2c(Oc3ccc(Br)cc3)c(C(=O)Nc3nn[nH]n3)sc2cc1C [Example B.38, 3-(4-Bromo-phenoxy)-5-methoxy-6-methyl-benzo[b]thiophene-2-carboxylic acid (2H-tetrazol-5-yl)-amide] | 0.016 |
| CCc1cccc(Oc2c(C(=O)Nc3nn[nH]n3)sc3cc(C)c(OC)cc23)c1 [Example B.2, 3-(3-Ethyl-phenoxy)-5-Methoxy-6-methyl-benzo[b]thiophene-2-carboxylic acid (2H-tetrazol-5-yl)-amide] | 0.018 |
| COc1cc2sc(C(=O)Nc3nnn[nH]3)c(OC[C@@H](C)c3ccccc3)c2cc1OC [Example C.23, 5,6-Dimethoxy-3-((S)-2-phenyl-propoxy)-benzo[b]thiophene-2-carboxylic acid (1H-tetrazol-5-yl)-amide] | 0.255 |
| COc1cc2c(Oc3ccc(Cl)c(Cl)c3)c(C(=O)Nc3nn[nH]n3)sc2cc1C [Example B.44, 3-(3,4-Dichloro-phenoxy)-5-methoxy-6-methyl-benzo[b]thiophene-2-carboxylic acid (2H-tetrazol-5-yl)-amide] | 0.165 |
| COc1cc2sc(C(=O)Nc3nnn[nH]3)c(OCCc3ccccc3)c2cc1OC [Example C.1, 5,6-Dimethoxy-3-phenethyloxy-benzo[b]thiophene-2-carboxylic acid (1H-tetrazol-5-yl)-amide] | 0.185 |
| COc1cc2c(Oc3ccc(Oc4ccccc4)cc3)c(C(=O)Nc3nn[nH]n3)sc2cc1C [Example B.24, 5-Methoxy-6-methyl-3-(4-phenoxy-phenoxy)-benzo[b]thiophene-2-carboxylic acid (2H-tetrazol-5-yl)-amide] | 0.008 |
| 5-Methoxy-6-methyl-3-(2-phenyl-propoxy)-benzo[b]thiophene-2-carboxylic acid(2H-tetrazol-5-yl)-amide amide [Example B.56] | 0.056 |
| 3-[4-(Cyclohexyl-piperidin-1-yl-methyl)-phenoxy]-5-methoxy-6-methyl-benzo[b]thiophene-2-carboxylic acid (2H-tetrazol-5-yl)-amide [Example B.48] | 0.715 |
